Converted amounts (≈) assume the structure as drawn.
What was measured:
Type in all cases: cell-based
S. aureus MP-12 = test: microbe, parasite or virus in culture; conditions: Staphylococcus aureus, MP12, read-out: MIC S. aureus MP-12
E. coli MP-4 = test: MIC determination by CLSI broth dilution, E. coli MP-4; conditions: Escherichia coli, MP4, CLSI broth dilution; strain MP-4
K. pneumoniae MP-546 = test: MIC determination by CLSI broth dilution, K. pneumoniae MP-546; conditions: Klebsiella pneumoniae, MP546, CLSI broth dilution; strain MP-546
K. pneumoniae MP-648 = test: MIC determination by CLSI broth dilution, K. pneumoniae MP-648; conditions: Klebsiella pneumoniae, MP648, CLSI broth dilution; strain MP-648
P. aeruginosa MP-3 = test: MIC determination by CLSI broth dilution, P. aeruginosa MP-3; conditions: Pseudomonas aeruginosa, MP3, strain MP-3
A. baumannii MP-15 = test: MIC determination by CLSI broth dilution, A. baumannii MP-15; conditions: Acinetobacter baumannii, MP15, strain MP-15, read-out: MIC A. baumanii MP-15

Compound | MIC (S. aureus MP-12) | MIC (E. coli MP-4) | MIC (K. pneumoniae MP-546) | MIC (K. pneumoniae MP-648) | MIC (P. aeruginosa MP-3) | MIC (A. baumannii MP-15)
CO[C@]1(C)C[C@@H](C)CN(C)[C@H](CC2CCN(Cc3ccco3)CC2)COC(=O)C(C)(C)C(=O)[C@H](C)[C@H]1O[C@@H]1O[C@H](C)C[C@H](N(C)C)[C@H]1O [Compound 62] | 4 to 32 µg/mL (≈ 5.9 to 47.2 µM) | < 4 µg/mL | < 4 µg/mL | < 4 µg/mL | > 32 µg/mL | 4 to 32 µg/mL (≈ 5.9 to 47.2 µM)
CO[C@]1(C)C[C@@H](C)CN(C)[C@H](CC2CCN(C3CC3)CC2)COC(=O)C(C)(C)C(=O)[C@H](C)[C@H]1O[C@@H]1O[C@H](C)C[C@H](N(C)C)[C@H]1O [Compound 63] | 4 to 32 µg/mL (≈ 6.27 to 50.2 µM) | < 4 µg/mL | < 4 µg/mL | 4 to 32 µg/mL (≈ 6.27 to 50.2 µM) | > 32 µg/mL | > 32 µg/mL
CO[C@]1(C)C[C@@H](C)CN(C)[C@H](CC2CCN(C=O)CC2)COC(=O)C(C)(C)C(=O)[C@H](C)[C@H]1O[C@@H]1O[C@H](C)C[C@H](N(C)C)[C@H]1O [Compound 64] | > 32 µg/mL | > 32 µg/mL | > 32 µg/mL | > 32 µg/mL | > 32 µg/mL | > 32 µg/mL
COC(CN1CCC(C[C@@H]2COC(=O)C(C)(C)C(=O)[C@H](C)[C@@H](O[C@@H]3O[C@H](C)C[C@H](N(C)C)[C@H]3O)[C@](C)(OC)C[C@@H](C)CN2C)CC1)OC [Compound 65] | 4 to 32 µg/mL (≈ 5.83 to 46.7 µM) | < 4 µg/mL | < 4 µg/mL | 4 to 32 µg/mL (≈ 5.83 to 46.7 µM) | > 32 µg/mL | > 32 µg/mL
CO[C@]1(C)C[C@@H](C)CN(C)[C@@H](CC2CCN(CC3CC=CCC3)CC2)COC(=O)C(C)(C)C(=O)[C@H](C)[C@H]1O[C@@H]1O[C@H](C)C[C@H](N(C)C)[C@H]1O (stereo partly drawn) [Compound 73] | 4 to 32 µg/mL (≈ 5.78 to 46.2 µM) | < 4 µg/mL | < 4 µg/mL | 4 to 32 µg/mL (≈ 5.78 to 46.2 µM) | > 32 µg/mL | > 32 µg/mL
CO[C@]1(C)C[C@@H](C)CN(C)[C@H](CC2CN(CC(C)C)C2)COC(=O)C(C)(C)C(=O)[C@H](C)[C@H]1O[C@@H]1O[C@H](C)C[C@H](N(C)C)[C@H]1O [Compound 74] | > 32 µg/mL | > 32 µg/mL | > 32 µg/mL | > 32 µg/mL | > 32 µg/mL | > 32 µg/mL
CCCN1CCC(CC[C@@H]2COC(=O)C(C)(C)C(=O)[C@H](C)[C@@H](O[C@@H]3O[C@H](C)C[C@H](N(C)C)[C@H]3O)[C@](C)(OC)C[C@@H](C)CN2C)CC1 [Compound 75] | > 32 µg/mL | 4 to 32 µg/mL (≈ 6.12 to 48.9 µM) | > 32 µg/mL | > 32 µg/mL | > 32 µg/mL | > 32 µg/mL
CO[C@]1(C)C[C@@H](C)CN(C)[C@H](CCC2CCN(CC(C)C)CC2)COC(=O)C(C)(C)C(=O)[C@H](C)[C@H]1O[C@@H]1O[C@H](C)C[C@H](N(C)C)[C@H]1O [Compound 76] | > 32 µg/mL | < 4 µg/mL | 4 to 32 µg/mL (≈ 5.99 to 47.9 µM) | 4 to 32 µg/mL (≈ 5.99 to 47.9 µM) | > 32 µg/mL | > 32 µg/mL
CO[C@H](CCN1CCCC1)[C@@H]1COC(=O)C(C)(C)C(=O)[C@H](C)[C@@H](O[C@@H]2O[C@H](C)C[C@H](N(C)C)[C@H]2O)[C@](C)(OC)C[C@@H](C)CN1C [Compound 77] | 4 to 32 µg/mL (≈ 6.23 to 49.9 µM) | < 4 µg/mL | < 4 µg/mL | < 4 µg/mL | > 32 µg/mL | > 32 µg/mL
CO[C@]1(C)C[C@@H](C)CN(C)[C@H]([C@H](O)CCN2CCCC2)COC(=O)C(C)(C)C(=O)[C@H](C)[C@H]1O[C@@H]1O[C@H](C)C[C@H](N(C)C)[C@H]1O [Compound 78, (3S,6R,8R,9R,10R)-9-(((2S,3R,4S,6R)-4-(Dimethylamino)-3-hydroxy-6-methyltetrahydro-2H-pyran-2-yl)oxy)-3-((R)-1-hydroxy-3-(pyrrolidin-1-yl)propyl)-8-methoxy-4,6,8,10,12,12-hexamethyl-1-oxa-4-azacyclotridecane-11,13-dione] | < 4 µg/mL | < 4 µg/mL | < 4 µg/mL | < 4 µg/mL | > 32 µg/mL | > 32 µg/mL
CCCN1CC(C[C@H]2COC(=O)C(C)(C)C(=O)[C@H](C)[C@@H](O[C@@H]3O[C@H](C)C[C@H](N(C)C)[C@H]3O)[C@](C)(OC)C[C@@H](C)CN2C)C1 [Compound 79] | > 32 µg/mL | 4 to 32 µg/mL (≈ 6.54 to 52.3 µM) | > 32 µg/mL | > 32 µg/mL | > 32 µg/mL | > 32 µg/mL
CO[C@]1(C)C[C@@H](C)CN(C)[C@H](CCCN2CCC(F)CC2)COC(=O)C(C)(C)C(=O)[C@H](C)[C@H]1O[C@@H]1O[C@H](C)C[C@H](N(C)C)[C@H]1O [Compound 85, (3R,6R,8R,9R,10R)-9-(((2S,3R,4S,6R)-4-(dimethylamino)-3-hydroxy-6-methyltetrahydro-2H-pyran-2-yl)oxy)-3-(3-(4-fluoropiperidin-1-yl)propyl)-8-methoxy-4,6,8,10,12,12-hexamethyl-1-oxa-4-azacyclotridecane-11,13-dione] | < 4 µg/mL | < 4 µg/mL | < 4 µg/mL | < 4 µg/mL | > 32 µg/mL | > 32 µg/mL
CCN1C[C@H](C)C[C@@](C)(OC)[C@H](O[C@@H]2O[C@H](C)C[C@H](N(C)C)[C@H]2O)[C@@H](C)C(=O)C(C)(C)C(=O)OC[C@@H]1CCCN1CCCC1 [Compound 87, (3S,6R,8R,9R,10R)-9-(((2S,3R,4S,6R)-4-(dimethylamino)-3-hydroxy-6-methyltetrahydro-2H-pyran-2-yl)oxy)-4-ethyl-8-methoxy-6,8,10,12,12-pentamethyl-3-(3-(pyrrolidin-1-yl)propyl)-1-oxa-4-azacyclotridecane-11,13-dione] | < 4 µg/mL | < 4 µg/mL | < 4 µg/mL | < 4 µg/mL | > 32 µg/mL | > 32 µg/mL
CCN1C[C@H](C)C[C@@](C)(OC)[C@H](O[C@@H]2O[C@H](C)C[C@H](N(C)C)[C@H]2O)[C@@H](C)C(=O)C(C)(C)C(=O)OC[C@H]1CCCN1CCC[C@@H]1C [Compound 88, (3R,6R,8R,9R,10R)-9-(((2S,3R,4S,6R)-4-(dimethylamino)-3-hydroxy-6-methyltetrahydro-2H-pyran-2-yl)oxy)-4-ethyl-8-methoxy-6,8,10,12,12-pentamethyl-3-(3-((S)-2-methylpyrrolidin-1-yl)propyl)-1-oxa-4-azacyclotridecane-11,13-dione] | 4 to 32 µg/mL (≈ 6.25 to 50 µM) | < 4 µg/mL | < 4 µg/mL | < 4 µg/mL | > 32 µg/mL | > 32 µg/mL
CO[C@]1(C)C[C@@H](C)CN(C)[C@@H](CCCN(C)C2CC2)COC(=O)C(C)(C)C(=O)[C@H](C)[C@H]1O[C@@H]1O[C@H](C)C[C@H](N(C)C)[C@H]1O [Compound 90, (3S,6R,8R,9R,10R)-3-(3-(cyclopropyl(methyl)amino)propyl)-9-(((2S,3R,4S,6R)-4-(dimethylamino)-3-hydroxy-6-methyltetrahydro-2H-pyran-2-yl)oxy)-8-methoxy-4,6,8,10,12,12-hexamethyl-1-oxa-4-azacyclotridecane-11,13-dione] | 4 to 32 µg/mL (≈ 6.54 to 52.3 µM) | < 4 µg/mL | < 4 µg/mL | 4 to 32 µg/mL (≈ 6.54 to 52.3 µM) | > 32 µg/mL | > 32 µg/mL
